Assay results reported in patent US20250120999A1 (priority 2022, published 2025).
Several values for one entry are separate records, joined by “and”; a condition that tells them apart may be missing. Equal values may be shown once. Marks after values point to notes of the source that are not given here.

Columns and labels:
MPXV A29 [1] = type: binding, monkeypox virus (MPXV)
MPXV A29 protein = type: binding, monkeypox virus (MPXV)
MPXV A35 protein [2] = type: binding, monkeypox virus (MPXV)
MPXV A29 [3] = type: binding, monkeypox virus (MPXV); remark: listed apart in the source
SARS-CoV-2 wild-type = conditions: cited from earlier work
[4] = tested on: SARS-CoV-2 Delta (B.1.617.2); conditions: cited from earlier work
MPXV A35 protein [5] = type: binding, monkeypox virus (MPXV); remark: listed apart in the source
MPXV L1R = type: binding, monkeypox virus (MPXV)

Row | Substance | inhibition of MPXV A29 binding to heparin surface (in words) (MPXV A29 [1]) | Normalized A29 protein binding (%) (MPXV A29 protein) | ability to inhibit A29-surface-immobilized heparin interaction (in words) (MPXV A29 protein) | Normalized A35 protein binding (%) (MPXV A35 protein [2]) | ability to inhibit A35-surface-immobilized heparin interaction (in words) (MPXV A35 protein [2]) | inhibition of MPXV A29 binding to surface-immobilized heparin (MPXV A29 protein) | inhibition of MPXV A35 binding to surface-immobilized heparin (MPXV A35 protein [2]) | other results
1 | 6-O-desulfated heparin [6-desulfated heparin] | weaker inhibition |  |  |  |  |  |  | 
2 | mucopolysaccharide polysulfate [MPS] | strongest inhibition |  |  |  |  |  |  | inhibition of MPXV A29 binding to surface-immobilized heparin (MPXV A29 [1]): 69%
3 | [→3)-α-Fuc2,4S-(1→3)-α-Fuc-(1→3)-α-Fuc2S-(1→3)-α-Fuc2S-(1→]n [HfSF] |  | 8.5** % | showed the ability to inhibit | 23.9* % | showed the ability to inhibit |  |  | 
4 | chondroitin-4-sulfate [CSA] |  |  |  |  |  |  |  | ka (MPXV A29 [3]): 3730 M⁻¹ s⁻¹; kd (MPXV A29 [3]): 3.2 × 10^−3 (±5.4 × 10^−5) s^−1
5 | chondroitin-4,6-sulfate [CSE] |  |  |  |  |  |  |  | ka (MPXV A29 [3]): 4858 M⁻¹ s⁻¹; kd (MPXV A29 [3]): 1.5 × 10^−3 (±4.7 × 10^−5) s^−1
6 | [→3)-α-Fuc2,4S-(1→3)-α-Fuc2S-(1→3)-α-Fuc2S-(1→3)-α-Fuc-(1→]n [IbSF] |  | 5.0** % | showed the ability to inhibit | 24.3* % | showed the ability to inhibit | 95% and 92.4% | 75.8% and 77.4% | inhibitory activity against SARS-CoV-2 wild-type (in words) (SARS-CoV-2 wild-type): showed inhibitory activity; inhibitory activity against SARS-CoV-2 Delta (in words) [4]: showed inhibitory activity
7 | chondroitin sulfate [CS] |  |  |  |  |  |  |  | binding of GAG chip to MPXV A35 protein (in words) (MPXV A35 protein [5]): neither CS nor DS showed binding
8 | heparin |  | 43.3* % |  | 27.7* % |  | 60% | 72% | kd (MPXV A29 [3]): 7.1 × 10^−3 (±5.0 × 10^−5) s^−1; Kd (MPXV A29 [3]; read-out: KD heparin-A29 interaction): 0.25 µM; binding between MPXV L1R protein and heparin (in words) (MPXV L1R): essentially no binding; ka (MPXV A35 protein [5]): 1.8 × 10^3 M^−1S^−1; Kd (MPXV A35 protein [5]; read-out: KD heparin-A35 interaction): 0.22 µM; inhibition of MPXV A29 binding to surface-immobilized heparin (MPXV A29 [1]): 30%
9 | [→3)-α-GalNAcX(1→4)-β-GlcA-[(3→1)Y]-(1→]n, where X=4S (80%), 6S (10%), or non-sulfated (10%), and Y=−Fuc2,4S (40%), αFuc2,4S-(1→4)-α-Fuc (30%), or α-Fuc4S (30%) [PpFucCS] |  | 13.0* % | showed the ability to inhibit | 19.0* % | showed the ability to inhibit | 87% | 89% | 
10 | [→3)-α-Fuc2,4S-(1→3)-αFuc2S-(1→3)-α-Fuc2S-(1→3)-α-Fuc4S-(1→]n [LvSF] |  | 23.6* % | showed the ability to inhibit | 16.9* % | showed the ability to inhibit | 76.4% | 83.1% | 
11 | [→3)-β-GalNAc4,6S-(1→4)β-GlcA-[(3→1)Y]-(1→]n, where Y=α-Fuc2,4S (96%) or α-Fuc4S (4%) [IbFucCS] |  | 7.6* % | showed the ability to inhibit | 20.1* % | showed the ability to inhibit | 91.5% and 86.1% | 79.9% and 77% | inhibitory activity against SARS-CoV-2 wild-type (in words) (SARS-CoV-2 wild-type): showed inhibitory activity; inhibitory activity against SARS-CoV-2 Delta (in words) [4]: showed inhibitory activity
12 | N-desulfated heparin | weaker inhibition |  |  |  |  |  |  | 
13 | 2-O-desulfated IdoA heparin [2-desulfated heparin] | weaker inhibition |  |  |  |  |  |  | 
14 | pentosan polysulfate [PPS] | strongest inhibition |  |  |  |  |  |  | inhibition of MPXV A29 binding to surface-immobilized heparin (MPXV A29 [1]): 62%
15 | dermatan sulfate [DS] |  |  |  |  |  |  |  | ka (MPXV A29 [3]): 4487 M⁻¹ s⁻¹; kd (MPXV A29 [3]): 2.8 × 10^−3 (±2.6 × 10^−5) s^−1; binding of GAG chip to MPXV A35 protein (in words) (MPXV A35 protein [5]): neither CS nor DS showed binding
16 | [→3)-β-GalNAc4,6S-(1→4)-β-GlcA-[(3→1)Y]-(1→]n, where Y=αFuc2,4S (45%), α-Fuc3,4S (35%), or α-Fuc4S (20%) [HfFucCS] |  | 13.9* % | showed the ability to inhibit | 23.0* % | showed the ability to inhibit |  |  | 
